Read-outs that look alike come from different tables or passages of the source.
Molecular target: T1, ACC (acetyl CoA carboxylase) purified from liver of male SD rat (Rattus norvegicus, UniProt P11497)
T1 construct: applied to a monomeric avidin sepharose column, and washed with buffer B. The ACC was eluted with buffer B containing 2 mM d-biotin; from tissue; host or cells: liver of male SD rat
Assay: Measurement of ACC inhibition activity ([14C]-NaHCO3 incorporation)
Type: biochemical
Settings: ACC inhibition activity rate at 1 μM, read-out: ACC Inhibition (%)
Description: A male SD rat was deprived of food for two days and then fed a high-sucrose diet (component) for two days. While anesthetized with ether, the descending vena cava was cut upon, the animal was bled, and the liver was rapidly recovered. In an ice-cooled buffer solution A (225 mM mannitol, 75 mM sucrose, 10 mM Tris-HCl (pH 7.5), 0.05 mM EDTA, 5 mM potassium citrate, 2.5 mM MgCl2, 10 mg/L pepstatin A, 10 mg/L leupeptin, 1 mM PMSF), the liver was homogenized with a polytone homogenizer. A quantity of buffer A nine times the weight of the liver was added, the mixture was centrifuged for 10 minutes at 1,000 g, the supernatant was recovered, and the supernatant was centrifuged for another 10 minutes at 17,000 g.
Ammonium sulfate was added to 35 percent saturation to the obtained supernatant. The mixture was stirred for 45 minutes and then centrifuged for 10 minutes at 17,000 g. Buffer solution B (100 mM Tris-HCl (pH 7.5), 500 mM NaCl, 1 mM EDTA, 0.1 mM DTT, 10 percent glycerol, 10 mg/L pepstatin A, 10 mg/L leupeptin, 0.5 mM PMSF) was added to the obtained precipitate and dissolved. The solution was then centrifuged for 20 minutes at 40,000 g. The supernatant was dialyzed overnight against buffer C (100 mM Tris-HCl (pH 7.5), 500 mM NaCl, 1 mM EDTA, 0.1 mM DTT, 5 percent glycerol).
The dialyzed supernatant was passed through a […], applied to a monomeric avidin sepharose column, and washed with buffer B. The ACC was eluted with buffer B containing 2 mM d-biotin.
(2 Measurement of ACC Inhibition Activity)
The compounds synthesized in the above-described embodiments were dissolved in DMSO and charged to glass vials. 250 μL of ACC-containing reaction solution (40 mM Tris-HCl (pH 7.5), 40 mM MgCl2, 40 mM sodium citrate, and 2 mM DTT) was added. The mixture was heated for 30 minutes at 37° C. in a thermostatic chamber and then cooled with ice. To reaction solution 1 was added 250 μL of reaction solution 2 containing [14C]—NaHCO3 (40 mM Tris-HCl (pH 7.5), 2 mM DTT, 8 mM ATP, 0.5 mM acetyl CoA) and the mixture was heated for 10 minutes at 37° C. 100 μL of 1N HCl was added to stop the reaction. Water in the reaction solution was removed with a centrifugal evaporator, a scintillator was added, the solid component was dissolved, and the 14C radioactivity was measured with a liquid scintillation counter. The ACC inhibition activity of each compound was calculated from the following equation and converted to the ACC inhibition activity rate (%) at 1 μM.
ACC inhibition rate (%)=(1−(a−c)/(b−c))×100 a. Radioactivity when test drug added b: Radioactivity when test drug not added c: Blank* *Reaction solution 1 to which 100 μL of 1N HCl was added before mixing reaction solution 1 and reaction solution 2

[1] = Table 3-I, Mode 1 quinoline compounds (numbers = x-I)
[2] = Table 2-III, Mode 3 acetylene/oxadiazole/thiazole compounds (numbers = x-III)
[3] = Table 4-IV, Mode 4 benzenediamine compounds (numbers = x-IV)

SMILES	inhibition at 1 µM [3]	further results
CCCCS(=O)(=O)NC(=O)c1ccccc1NC(=O)c1ccc2nc(-c3cccc(OC(F)(F)F)c3)ccc2c1 [compound 13]	–	inhibition at 1 µM [1]: 48%
O=C(O)c1ccc(C(=O)Nc2ccc(C#Cc3cccc(C(F)(F)F)c3)cc2)c(C(=O)O)c1 [compound 13]	–	inhibition at 1 µM [2]: 51%
CCCCCC(=O)NS(=O)(=O)c1ccccc1NC(=O)c1ccc(Nc2ccc(C(F)(F)F)cc2)c(NC(=O)c2cc(C(F)(F)F)cc(C(F)(F)F)c2)c1 [compound 16]	86%	–
O=C1c2ccccc2C(=O)N1c1cccc(C#Cc2cccc(C(F)(F)F)c2)c1 [compound 18]	–	inhibition at 1 µM [2]: 60%
CCCCCC(=O)NS(=O)(=O)c1ccccc1NC(=O)c1ccc(NCCC(C)C)c(NC(=O)c2cc(C(F)(F)F)cc(C(F)(F)F)c2)c1 [compound 20]	85%	–
CCCCCC(=O)NS(=O)(=O)c1ccccc1NC(=O)c1ccc(Nc2ccccc2)c(NC(=O)c2ccccc2)c1 [compound 23]	74%	–
CCCCCC(=O)NS(=O)(=O)c1ccccc1NC(=O)c1ccc(Nc2ccccc2)c(NC(=O)c2ccc(C(F)(F)F)cc2)c1 [compound 25]	97%	–
CCCCCC(=O)NS(=O)(=O)c1ccccc1NC(=O)c1ccc(Nc2ccccc2)c(NC(=O)c2cc(C(F)(F)F)cc(C(F)(F)F)c2)c1 [compound 26]	78%	–
CCCCCC(=O)NS(=O)(=O)c1ccccc1NC(=O)c1ccc(Nc2ccc(C(F)(F)F)cc2)c(NC(=O)c2cccc(C(F)(F)F)c2)c1 [compound 27]	91%	–
O=C(O)c1cccc(-c2nc(-c3ccc(C#Cc4cccc(C(F)(F)F)c4)cc3)no2)c1 [compound 27]	–	inhibition at 1 µM [2]: 56%
CCCCCC(=O)NS(=O)(=O)c1ccccc1NC(=O)c1ccc(Nc2ccc(C(F)(F)F)cc2)c(NC(=O)c2ccc(C(F)(F)F)cc2)c1 [compound 28]	92%	–
O=C(O)c1ccc(-c2nc(-c3ccc(C#Cc4cccc(C(F)(F)F)c4)cc3)no2)cc1 [compound 28]	–	inhibition at 1 µM [2]: 58%
CCCCCC(=O)NS(=O)(=O)c1ccccc1NC(=O)c1ccc(Nc2ccc(C(F)(F)F)cc2)c(NC(=O)C2CCCCC2)c1 [compound 31]	72%	–
CCCCCC(=O)NS(=O)(=O)c1ccccc1NC(=O)c1ccc(Nc2ccc(C(F)(F)F)cc2)c(NC(=O)c2ccncc2)c1 [compound 33]	61%	–
CCCCCC(=O)NS(=O)(=O)c1ccccc1NC(=O)c1ccc(Nc2ccc(C(F)(F)F)cc2)c(NC(=O)c2cccs2)c1 [compound 34]	67%	–
CCCCCC(=O)NS(=O)(=O)c1ccccc1NC(=O)c1ccc(Nc2ccc(C(F)(F)F)cc2)c(NC(=O)OCc2ccccc2)c1 [compound 35]	91%	–
O=C(O)c1ccccc1-c1csc(-c2ccc(C#Cc3cccc(C(F)(F)F)c3)cc2)n1 [compound 35]	–	inhibition at 1 µM [2]: 50%
CC(C)CCNc1ccc(-c2noc(-c3cccc(C(=O)NS(=O)(=O)c4ccccc4)c3)n2)cc1[N+](=O)[O-] [compound 36]	87%	–
O=C(O)c1ccc(-c2csc(-c3ccc(C#Cc4cccc(C(F)(F)F)c4)cc3)n2)cc1 [compound 36]	–	inhibition at 1 µM [2]: 54%
CC(C)CCN(C)c1ccc(-c2noc(-c3cccc(C(=O)NS(=O)(=O)c4ccccc4)c3)n2)cc1[N+](=O)[O-] [compound 37]	86%	–
CC(C)CCN(C)c1ccc(-c2noc(-c3cccc(C(=O)NS(=O)(=O)c4ccccc4)c3)n2)cc1NC(=O)c1cccc(C(F)(F)F)c1 [compound 39]	99%	–
CC(C)CCN(C)c1ccc(-c2noc(-c3cccc(C(=O)NS(=O)(=O)c4ccccc4)c3)n2)cc1NC(=O)c1ccccc1 [compound 40]	87%	–
CC(C)CCN(C)c1ccc(-c2noc(-c3cccc(C(=O)NS(=O)(=O)c4ccccc4)c3)n2)cc1NC(=O)C1CCCCC1 [compound 41]	85%	–

SMILES	inhibition at 1 µM [3]	further results
CCC(CC)C(=O)Nc1cc(-c2noc(-c3cccc(C(=O)NS(=O)(=O)c4ccccc4)c3)n2)ccc1N(C)CCC(C)C [compound 42]	76%	–
CC(C)CCN(C)c1ccc(-c2noc(-c3cccc(C(=O)NS(=O)(=O)c4ccccc4)c3)n2)cc1NC(=O)c1cccs1 [compound 43]	83%	–
CC(C)CCN(C)c1ccc(-c2noc(-c3cccc(C(=O)NS(=O)(=O)c4ccccc4)c3)n2)cc1NC(=O)OCc1ccccc1 [compound 44]	100%	–
CC(C)CCN(C)c1ccc(-c2noc(-c3cccc(C(=O)NS(=O)(=O)c4ccccc4)c3)n2)cc1NCc1ccccc1 [compound 45]	100%	–
CC(C)CCN(C)c1ccc(-c2noc(-c3cccc(C(=O)NS(=O)(=O)c4ccccc4)c3)n2)cc1NCC1CCCCC1 [compound 47]	100%	–
CC(C)CCN(C)c1ccc(-c2noc(-c3cccc(C(=O)NS(=O)(=O)c4ccccc4)c3)n2)cc1NC(C)C [compound 48]	87%	–
CC(C)c1ccc(S(=O)(=O)NC(=O)CC(NC(=O)c2ccc3nc(-c4cc(C(F)(F)F)cc(C(F)(F)F)c4)ccc3c2)c2ccccc2)cc1 (stereo not shown) [compound 49]	–	inhibition at 1 µM [1]: 62%
O=C(O)C1C=CC=CC1c1nc(-c2ccc(-c3csc(-c4ccc(C(F)(F)F)cc4)n3)cc2)no1 (stereo not shown) [compound 49]	–	inhibition at 1 µM [2]: 62%
CC(C)c1ccc(S(=O)(=O)NC(=O)C[C@H](NC(=O)c2ccc3nc(-c4cc(C(F)(F)F)cc(C(F)(F)F)c4)ccc3c2)C2CCCCC2)cc1 [compound 50]	–	inhibition at 1 µM [1]: 87%
CC(C)CCN(C)c1ccc(-c2nc(-c3cccc(C(=O)NS(=O)(=O)c4ccccc4)c3)no2)cc1[N+](=O)[O-] [compound 51]	76%	–
O=C(O)c1ccc(-c2nc(-c3ccc(-c4csc(-c5ccc(C(F)(F)F)cc5)n4)cc3)no2)cc1 [compound 51]	–	inhibition at 1 µM [2]: 53%
O=C(NS(=O)(=O)c1ccccc1)c1cccc(-c2noc(-c3ccc(NC4CC4)c([N+](=O)[O-])c3)n2)c1 [compound 52]	59%	–
CC(C)CCN(C)c1ccc(C(=O)NC(CC(=O)NS(=O)(=O)c2ccccc2)C2CCCCC2)cc1NCc1ccccc1 (stereo not shown) [compound 54]	87%	–
CCCCS(=O)(=O)NC(=O)CC1(NC(=O)c2ccc3nc(-c4cc(C(F)(F)F)cc(C(F)(F)F)c4)ccc3c2)CCCCC1 [compound 54]	–	inhibition at 1 µM [1]: 45%
CC(C)CCN(C)c1ccc(C(=O)NC(CC(=O)NS(=O)(=O)c2ccccc2)C2CCCCC2)cc1NCC1CCCCC1 (stereo not shown) [compound 55]	90%	–
CCCCS(=O)(=O)NC(=O)C1CCCCCC[C@@H]1NC(=O)c1ccc2nc(-c3cc(C(F)(F)F)cc(C(F)(F)F)c3)ccc2c1 (stereo partly shown) [compound 55]	–	inhibition at 1 µM [1]: 70%
O=S(=O)(Nc1ccc(-c2csc(-c3ccc(C(F)(F)F)cc3)n2)cc1)c1cccc(S(=O)(=O)Nc2ccc(-c3csc(-c4ccc(C(F)(F)F)cc4)n3)cc2)c1 [compound 55]	–	inhibition at 1 µM [2]: 73%
CC(C)CCN(C)c1ccc(-c2noc(-c3cccc(C(=O)NS(=O)(=O)c4ccccc4)c3)n2)cc1N(CCCc1ccccc1)CCCc1ccccc1 [compound 56]	100%	–
CCCCS(=O)(=O)NC(=O)CC(C)(NC(=O)c1ccc2nc(-c3cc(C(F)(F)F)cc(C(F)(F)F)c3)ccc2c1)c1ccccc1 (stereo not shown) [compound 56]	–	inhibition at 1 µM [1]: 47%
CC(C)CCN(C)c1ccc(-c2noc(-c3cccc(C(=O)NS(=O)(=O)c4ccccc4)c3)n2)cc1NCC1=CCCCC1 [compound 57]	100%	–
CCCCS(=O)(=O)NC(=O)C1CCc2ccccc2[C@@H]1NC(=O)c1ccc2nc(-c3cc(C(F)(F)F)cc(C(F)(F)F)c3)ccc2c1 (stereo partly shown) [compound 57]	–	inhibition at 1 µM [1]: 59%
CCCCS(=O)(=O)NC(=O)[C@@H]1C[C@@H]2C[C@@H](C2(C)C)[C@]1(C)NC(=O)c1ccc2nc(-c3cc(C(F)(F)F)cc(C(F)(F)F)c3)ccc2c1 [compound 58]	–	inhibition at 1 µM [1]: 46%
CCCCS(=O)(=O)NC(=O)[C@@H]1C[C@H]2C[C@H](C2(C)C)[C@@]1(C)NC(=O)c1ccc2nc(-c3cc(C(F)(F)F)cc(C(F)(F)F)c3)ccc2c1 [compound 59]	–	inhibition at 1 µM [1]: 74%

— patent publication US7402696B2, “Benzene compounds” (Ajinomoto Co., Inc., priority 2004, dated 2008)
